What was measured:
Assay in all cases: relative viability (nuclei count vs DMSO), 5 days (fraction); higher = more cells survive
AZ628 + Luminespib = compound: CC1=C(C=C(C=C1)NC(=O)C2=CC(=CC=C2)C(C)(C)C#N)NC3=CC4=C(C=C3)N=CN(C4=O)C [AZ628] + CCNC(=O)c1noc(-c2cc(C(C)C)c(O)cc2O)c1-c1ccc(CN2CCOCC2)cc1 [Luminespib] (partner 0.01 µM)
Outline: (§1)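 One day after seeding in 1536-well plates, lung cancer cell lines were dosed by pin tool. Dosing was either single-drug or a fixed anchor-drug dose plus five library-drug doses (not always all listed) in √10 steps. After 5 days, nuclei were stained in one fix-and-stain step and counted on 4× images, and relative viability is the nuclei count of treated wells over that of vehicle wells, given as the median of duplicate plates.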

QS11 + Foretinib = compound: C1CC2=C(C1)C=C(C=C2)OC3=NC(=C4C(=N3)N(C=N4)CC5=CC=C(C=C5)C6=CC=CC=C6)N[C@@H](CC7=CC=CC=C7)CO [QS11] + COc1cc2c(Oc3ccc(NC(=O)C4(C(=O)Nc5ccc(F)cc5)CC4)cc3F)ccnc2cc1OCCCN1CCOCC1 [Foretinib] (partner 0.25 µM)
Outline: as §1

Darinaparsin + AZD7762 = compound: C[As](C)SC[C@H](NC(=O)CC[C@H](N)C(=O)O)C(=O)NCC(=O)O [Darinaparsin] + NC(=O)Nc1cc(-c2cccc(F)c2)sc1C(=O)N[C@H]1CCCNC1 [AZD7762] (partner 0.2 µM)
Outline: as §1

AZ628 + Foretinib = compound: CC1=C(C=C(C=C1)NC(=O)C2=CC(=CC=C2)C(C)(C)C#N)NC3=CC4=C(C=C3)N=CN(C4=O)C [AZ628] + COc1cc2c(Oc3ccc(NC(=O)C4(C(=O)Nc5ccc(F)cc5)CC4)cc3F)ccnc2cc1OCCCN1CCOCC1 [Foretinib] (partner 0.25 µM)
Outline: as §1

Row | Cell Line | relative viability (AZ628 + Luminespib; first compound 0.08 µM) | relative viability (AZ628 + Luminespib; first compound 0.253 µM) | relative viability (AZ628 + Luminespib; first compound 0.8 µM) | relative viability (AZ628 + Luminespib; first compound 2.53 µM) | relative viability (AZ628 + Luminespib; first compound 8 µM) | relative viability (QS11 + Foretinib; first compound 0.08 µM) | relative viability (QS11 + Foretinib; first compound 0.253 µM) | relative viability (QS11 + Foretinib; first compound 0.8 µM) | relative viability (QS11 + Foretinib; first compound 2.53 µM) | relative viability (QS11 + Foretinib; first compound 8 µM) | relative viability (Darinaparsin + AZD7762; first compound 0.08 µM) | relative viability (Darinaparsin + AZD7762; first compound 0.8 µM) | relative viability (Darinaparsin + AZD7762; first compound 2.53 µM) | relative viability (Darinaparsin + AZD7762; first compound 8 µM) | relative viability (AZ628 + Foretinib; first compound 0.08 µM) | relative viability (AZ628 + Foretinib; first compound 0.253 µM) | relative viability (AZ628 + Foretinib; first compound 0.8 µM) | relative viability (AZ628 + Foretinib; first compound 2.53 µM) | relative viability (AZ628 + Foretinib; first compound 8 µM)
1 | NCI-H358 | 0.285 | 0.279 | 0.273 | 0.311 | 0.167 | 0.596 | 0.777 | 1 | 0.936 | 0.52 | 0.478 | 0.581 | 0.591 | 0.522 | 0.538 | 0.472 | 0.373 | 0.466 | 0.323
2 | NCI-H3122 | 0.0933 | 0.0771 | 0.11 | 0.0973 | 0.0958 | 0.979 | 1.08 |  | 1.05 | 0.749 | 1.14 | 1 | 0.937 | 1.34 | 0.787 | 0.625 | 0.499 | 0.613 | 0.233
3 | NCI-H2347 | 0.287 | 0.239 | 0.301 | 0.255 | 0.218 | 0.825 | 1.18 | 1.01 | 0.942 | 0.994 | 0.668 | 0.583 | 0.734 | 0.871 | 0.697 | 0.81 | 0.704 | 0.976 | 0.407
4 | HCC-366 |  |  |  |  |  | 0.985 | 0.962 |  | 0.895 | 0.147 | 0.339 |  | 0.222 | 0.332 | 0.885 | 0.884 | 0.781 | 0.892 | 0.372
5 | SK-MES-1 | 0.848 | 0.72 | 0.574 | 0.598 | 0.386 | 0.985 | 0.783 | 0.918 | 0.605 | 0.778 |  |  |  |  | 0.837 | 0.894 | 0.801 | 0.771 | 0.846
6 | NCI-H1703 |  |  |  |  |  | 0.306 | 0.309 | 0.333 | 0.422 | 0.322 | 0.199 | 0.186 |  | 0.132 | 0.327 | 0.41 | 0.415 | 0.302 | 0.413
7 | SW 1573 | 0.315 | 0.258 | 0.16 | 0.189 | 0.171 | 0.862 | 0.926 | 1.02 | 0.853 | 1.07 |  |  |  |  | 0.858 | 0.858 | 0.664 | 0.7 | 0.517
8 | NCI-H2023 | 0.818 | 0.76 | 0.666 | 0.65 | 0.653 | 0.721 | 0.883 | 0.686 | 0.999 | 0.852 |  |  |  |  | 0.886 | 0.824 | 0.826 | 0.724 | 0.607
9 | NCI-H661 | 1.03 | 0.941 | 0.912 | 0.961 | 0.731 | 1 | 1.02 | 0.913 | 1.05 | 1.03 |  |  |  |  | 1.12 | 0.974 | 0.846 | 0.866 | 0.832
10 | Calu-6 |  |  |  |  |  | 1.04 | 0.93 | 0.897 | 0.953 | 0.998 |  |  |  |  | 0.867 | 0.726 | 0.636 | 0.816 | 0.142
11 | NCI-H1650 | 0.206 | 0.18 | 0.201 | 0.203 | 0.206 | 1 | 1.25 | 0.799 | 1.14 | 1.19 |  |  |  |  | 1.33 | 1.34 | 1.42 | 1.26 | 1.02
12 | IA-LM |  |  |  |  |  | 1.22 | 1.15 |  | 1.12 | 0.969 |  |  |  |  | 1.28 | 1.04 | 0.821 | 0.861 | 0.2
13 | HCC-78 |  |  |  |  |  | 0.538 | 0.494 | 0.606 | 0.689 | 0.66 | 0.587 | 0.706 | 0.58 | 0.699 | 0.732 | 0.748 | 0.715 | 0.621 | 0.67
14 | A549 |  |  |  |  |  | 0.911 | 0.883 | 0.697 | 0.918 | 0.917 |  |  |  |  | 0.931 | 0.824 | 0.816 | 0.956 | 0.34
15 | SK-LU-1 |  | 0.181 | 0.231 | 0.211 | 0.169 | 0.782 | 0.874 | 0.68 | 0.784 | 0.641 |  |  |  |  |  | 0.75 | 0.685 | 0.628 | 0.589
16 | EBC-1 |  |  |  |  |  | 0.0939 | 0.0918 | 0.115 | 0.11 | 0.144 |  |  |  |  | 0.117 | 0.11 | 0.111 | 0.0929 | 0.0846
17 | NCI-H1623 | 0.493 | 0.432 | 0.393 | 0.358 | 0.395 | 0.807 | 0.829 | 0.751 | 0.775 | 1.01 |  |  |  |  | 0.848 | 0.829 | 0.62 | 0.764 | 0.498
18 | NCI-H522 | 1.33 | 1.15 | 1.16 | 1.29 | 0.821 |  |  |  |  |  | 0.764 | 0.895 | 0.809 | 0.883 |  |  |  |  | 
19 | COR-L23 | 0.687 | 0.737 | 0.709 | 0.655 | 0.404 | 0.976 | 1.03 | 0.716 | 0.802 | 0.735 |  |  |  |  | 1.02 | 1 | 0.949 | 1.08 | 0.625
20 | NCI-H1299 |  |  |  |  |  | 1.14 | 1.11 | 0.956 | 1.04 | 0.948 |  |  |  |  | 1.12 | 1.3 | 1.3 | 1.24 | 0.58
21 | NCI-H520 | 0.21 | 0.219 | 0.209 | 0.219 | 0.203 | 0.703 | 1.08 | 1.12 | 0.792 | 0.867 |  |  |  |  | 0.834 | 0.7 | 0.76 | 0.802 | 0.631
22 | NCI-H1563 | 0.531 | 0.524 | 0.519 | 0.56 | 0.515 | 0.971 | 0.876 | 1.06 | 1.07 | 0.916 |  |  |  |  | 0.957 | 0.997 | 0.944 | 0.963 | 0.953
23 | NCI-H2228 | 0.119 | 0.133 | 0.18 | 0.195 | 0.14 | 0.835 | 0.827 | 0.755 | 1 | 1.03 |  |  |  |  | 0.72 | 0.806 | 0.811 | 0.722 | 0.532

From the supplement of paper PMC10307832
